Source: paper PMC10515483, “Structure–Reactivity Studies of 2-Sulfonylpyrimidines Allow Selective Protein Arylation” (Bioconjugate Chemistry, 2023)

What was measured:
p53-Y220C DBD = biological target: T1, p53-Y220C DBD (Homo sapiens, UniProt P04637, M133L/N239Y/N268D/V203A/Y220C); test: Protein arylation by ESI mass spectrometry; format: binding
T1 construct: (residues 94-312); 6xHis/lipoyl domain/TEV protease cleavage site (N, cleaved yes); made in house; host or cells: E. coli C41
Experimental: In mass spectrometry experiments, we incubated 50 μM purified p53-Y220C DBD in KPi buffer at varying pH’s (6.0–8.0), temperatures (0 and 20 °C), and equivalents of 2-SPs (20–100). Representative 2-SPs were selected to span a broad reactivity range to determine whether trends observed in GSH in vitro assays translate to relative rates of modification of solvent exposed cysteines in folded proteins. […] The same could also be achieved with only 20 equiv of reagent by increasing the temperature to 20 °C, or raising the pH to 8.0. This is an important result because late-stage protein functionalization with bromo- and iodo-(hetero)aromatic motifs is challenging and inaccessible by metal-catalyzed arylation methodologies due to dehalogenation and/or off-target specificity. The introduction of an iodo-(hetero)aromatic motif on the protein surface facilitates drastically the crystal structure resolution with a sharp variation of density. […] Overall, we observed good correlation between GSH and protein experiments.
Figure 4 Biophysical and structural characterization of protein cysteine arylation by 2-SPs. […] Stoichiometry, reaction time/temperature, and pH are indicated in each case. X axis: m/z (Da). Y axis: normalized intensities as a percentage of the most intense peak. Middle: Structure of the modified Y220C mutant (green) superimposed onto the structure of the unmodified protein (gray, PDB entry 6SHZ)[40] showing the region around modified C182 (E) and C277 (F). Hydrogen bonds formed by the pyrimidine are highlighted as dashed yellow lines. 2Fo – Fc electron density maps are shown at a contour level of 1.3σ for segments of chain B including the modified residues C182 and C277. Bottom (F): Protein thermal stability (ΔTm, °C) of p53-Y220C, β-catenin ARD. and FGE, determined by DSF in the presence of 100 μM 2-SP derivatives. […]

[1] = Hydrolytic stability in KPi buffer without thiol (NMR); format: physicochemical; details: over 12 hours, 50 mM KPi, footnote a: crashing out of solution, no degradation product
Experimental: NMR studies: rate constant determination and hydrolytic stability. 850 µL of 50 mM Kpi buffer solution (pH 8.2 or 7), 20 µL of the appropriate pyrimidine stock s olution (100 mM in DMSO -d6), 20 µL of TMSP stock solution (22.2 mM in DI water), 30 µL DMSO -d6, and 80 µL of GSH stock solution (0.25 M in DI water, reactivity only) were successively added/mixed at room temperature, final pH 7.0 or 6.5 (Table S1). 600 µL of this freshly prepared solution was poured into an NMR tube and immediately […]
transferred to the NMR instrument for acquisition. 1H spectra (16 scans) were recorded every 10 minutes under water suppression conditions. Following acquisition, spectra were analysed using […]
order reaction rate constants (k’).

[2] = GSH arylation rate constants (NMR; UV-vis for fast warheads); format: physicochemical; details: for rate constant (k) for the reaction with GSH: by NMR, KPi buffer, 5% DMSO-d6; for k change (vs ref): ratio to rate constant of 4q, acceleration (+) or deceleration (-); for k: Table S8, rate constants obtained at pH = 7; for k/kref / ΔΔG≠1exp: relative to 4q; for ΔΔG≠1exp: via -RTln(k/kref)
How it was run: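 Second-order rate constants k for GSH arylation derived from pseudo-first-order k′ (warhead:GSH 1:10), by normalized NMR integration of the disappearing warhead signal over 6 h; TMSP internal standard. KPi buffer with 5% d6-DMSO, pH 7.0 and 6.5, 20 °C; UV–vis used for fast warheads. Mean of ≥2 independent runs.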

| SMILES | protein arylation by ESI-MS (in words) (p53-Y220C DBD; 100 equiv, 0 °C, pH 7.2) | % degradation ([1]; pH 7.0) | % degradation ([1]; pH 8.2) | rate constant (k) for the reaction with GSH ([2]; pH 6.5) | rate constant (k) for the reaction with GSH ([2]; pH 7.0) | k change (vs ref) ([2]; pH 7.0) | melting point | protein modification by ESI-MS (in words) (p53-Y220C DBD; 50 μM protein, all conditions tested, even after 4 h at 20 °C) | k [2] | k/kref [2] | ΔΔG≠1exp [2] | time to selective double arylation (p53-Y220C DBD; 100 equiv, 0 °C, pH 7.2) |
| --- | --- | --- | --- | --- | --- | --- | --- | --- | --- | --- | --- | --- |
| CS(=O)(=O)c1ncc(I)cn1 [4u] | completely selective double arylation | < 5% | 14% | 0.025 ± 0.01 M⁻¹ s⁻¹ | 0.66 ± 0.01 M⁻¹ s⁻¹ | +26 fold | 56 °C | – | – | – | – | – |
| Cc1cc(C)nc(S(C)(=O)=O)n1 [4a] | – | < 5% | – | 0.00038 ± 8e-05 M⁻¹ s⁻¹ | 0.001 M⁻¹ s⁻¹ | -25 fold | – | could not detect any protein modification | 0.0010 M⁻¹ s⁻¹ | 0.040 | 1.91 kcal/mol | – |
| CS(=O)(=O)c1ncc(Br)cn1 [4t] | completely selective double arylation | < 5% | < 5% | 0.056 ± 0.034 M⁻¹ s⁻¹ | 0.29 ± 0.25 M⁻¹ s⁻¹ | +12 fold | – | – | 0.29 M⁻¹ s⁻¹ | 12 | -1.46 kcal/mol | 2.5 h |
